In PubChem BioAssay AID1963449 (Molecular Pharmacology Branch, DTP, NCI, 2024):
Where “and” joins values, the source holds several entries; their conditions need not be identical. Equal entries are not always repeated.

Test system: 596521-263-R-J1-PDC complex spheroid growth
Assay: Anticancer human tumor 596521-263-R-J1-PDC patient-derived soft tissue sarcoma cell line growth inhibition [Asc]
Conditions: for viability, T/C: stronger effect = lower value
In short: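 Complex solid-tumor spheroids incorporating human endothelial and mesenchymal stem cells received single agents or combinations over half-log dilution ranges anchored to clinical Cmax.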

[1] = curve of first compound, second compound 0.00949 µM
[2] = curve of first compound, second compound 0.03 µM
[3] = curve of first compound, second compound 0.0949 µM
[4] = curve of first compound, second compound 0.3 µM
[5] = curve of first compound, second compound 0.949 µM
[6] = curve of first compound, second compound 3 µM
[7] = second compound 0.00949 µM, first compound 0.0316 µM
[8] = second compound 0.00949 µM, first compound 0.1 µM
[9] = second compound 0.00949 µM, first compound 0.316 µM
[10] = second compound 0.00949 µM, first compound 1 µM
[11] = second compound 0.03 µM, first compound 0.0316 µM
[12] = second compound 0.03 µM, first compound 0.1 µM
[13] = second compound 0.03 µM, first compound 0.316 µM
[14] = second compound 0.03 µM, first compound 1 µM
[15] = second compound 0.0949 µM, first compound 0.0316 µM
[16] = second compound 0.0949 µM, first compound 0.1 µM
[17] = second compound 0.0949 µM, first compound 0.316 µM
[18] = second compound 0.0949 µM, first compound 1 µM
[19] = second compound 0.3 µM, first compound 0.0316 µM
[20] = second compound 0.3 µM, first compound 0.1 µM
[21] = second compound 0.3 µM, first compound 0.316 µM
[22] = second compound 0.3 µM, first compound 1 µM
[23] = second compound 0.949 µM, first compound 0.0316 µM
[24] = second compound 0.949 µM, first compound 0.1 µM
[25] = second compound 0.949 µM, first compound 0.316 µM
[26] = second compound 0.949 µM, first compound 1 µM
[27] = second compound 3 µM, first compound 0.0316 µM
[28] = second compound 3 µM, first compound 0.1 µM
[29] = second compound 3 µM, first compound 0.316 µM
[30] = second compound 3 µM, first compound 1 µM
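Also: spheroids exposed to compounds for 7 days.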

C=CC(=O)N1CCN(c2nc(=O)n(-c3c(C)ccnc3C(C)C)c3nc(-c4c(O)cccc4F)c(F)cc23)C(C)C1 (stereo unspecified) + CCN1C(C(=O)NC23CCC(C(=O)O)(CC2)CC3)C(c2cccc(Cl)c2F)C2(C(=O)Nc3cc(Cl)ccc32)C12CCCCC2
IC50 [1]: > 10 µM
IC50 [2]: > 10 µM
IC50 [3]: > 10 µM
IC50 [4]: > 10 µM
IC50 [5]: > 10 µM
IC50 [6]: > 10 µM
viability, T/C [7]: 102%
viability, T/C [8]: 101%
viability, T/C [9]: 123%
viability, T/C [10]: 114%
viability, T/C (second compound 0.00949 µM, first compound 3.16 µM): 113%
viability, T/C (second compound 0.00949 µM, first compound 10 µM): 70.7%
viability, T/C [11]: 108%
viability, T/C [12]: 99.6%
viability, T/C [13]: 94.5%
viability, T/C [14]: 125%
viability, T/C (second compound 0.03 µM, first compound 3.16 µM): 114%
viability, T/C (second compound 0.03 µM, first compound 10 µM): 67.7%
viability, T/C [15]: 118%
viability, T/C [16]: 111%
viability, T/C [17]: 113%
viability, T/C [18]: 108%
viability, T/C (second compound 0.0949 µM, first compound 3.16 µM): 103%
viability, T/C (second compound 0.0949 µM, first compound 10 µM): 86.1%
viability, T/C [19]: 108%
viability, T/C [20]: 99.2%
viability, T/C [21]: 106%
viability, T/C [22]: 117%
viability, T/C (second compound 0.3 µM, first compound 3.16 µM): 112%
viability, T/C (second compound 0.3 µM, first compound 10 µM): 73.7%
viability, T/C [23]: 103%
viability, T/C [24]: 101%
viability, T/C [25]: 96.2%
viability, T/C [26]: 113%
viability, T/C (second compound 0.949 µM, first compound 3.16 µM): 111%
viability, T/C (second compound 0.949 µM, first compound 10 µM): 80.9%
viability, T/C [27]: 86.8%
viability, T/C [28]: 81.9%
viability, T/C [29]: 91.6%
viability, T/C [30]: 98.2%
viability, T/C (second compound 3 µM, first compound 3.16 µM): 89.4%
viability, T/C (second compound 3 µM, first compound 10 µM): 70.3%

O=C(c1ccc(F)c(F)c1Nc1ccc(I)cc1F)N1CC(O)([C@@H]2CCCCN2)C1 + CCN1C(C(=O)NC23CCC(C(=O)O)(CC2)CC3)C(c2cccc(Cl)c2F)C2(C(=O)Nc3cc(Cl)ccc32)C12CCCCC2
IC50 [1]: 0.493 µM
IC50 [2]: 0.466 µM
IC50 [3]: 0.418 µM
IC50 [4]: 0.428 µM
IC50 [5]: 0.356 µM
IC50 [6]: 0.315 µM
viability, T/C (second compound 0.00949 µM, first compound 0.00316 µM): 113%
viability, T/C (second compound 0.00949 µM, first compound 0.01 µM): 98.4%
viability, T/C [7]: 112%
viability, T/C [8]: 83.6%
viability, T/C [9]: 58.4%
viability, T/C [10]: 38.8%
viability, T/C (second compound 0.03 µM, first compound 0.00316 µM): 104%
viability, T/C (second compound 0.03 µM, first compound 0.01 µM): 100%
viability, T/C [11]: 103%
viability, T/C [12]: 81.9%
viability, T/C [13]: 57.8%
viability, T/C [14]: 36.4%
viability, T/C (second compound 0.0949 µM, first compound 0.00316 µM): 101%
viability, T/C (second compound 0.0949 µM, first compound 0.01 µM): 96.1%
viability, T/C [15]: 112%
viability, T/C [16]: 84.3%
viability, T/C [17]: 56.4%
viability, T/C [18]: 34.3%
viability, T/C (second compound 0.3 µM, first compound 0.00316 µM): 119%
viability, T/C (second compound 0.3 µM, first compound 0.01 µM): 94.9%
viability, T/C [19]: 101%
viability, T/C [20]: 79.1%
viability, T/C [21]: 51.4%
viability, T/C [22]: 37%
viability, T/C (second compound 0.949 µM, first compound 0.00316 µM): 97.8%
viability, T/C (second compound 0.949 µM, first compound 0.01 µM): 99.8%
viability, T/C [23]: 98.2%
viability, T/C [24]: 82.9%
viability, T/C [25]: 51.4%
viability, T/C [26]: 39.7%
viability, T/C (second compound 3 µM, first compound 0.00316 µM): 97.1%
viability, T/C (second compound 3 µM, first compound 0.01 µM): 84.9%
viability, T/C [27]: 91.5%
viability, T/C [28]: 65.6%
viability, T/C [29]: 53.4%
viability, T/C [30]: 44.5%

O=C(c1cc(Cc2n[nH]c(=O)c3ccccc23)ccc1F)N1CCN(C(=O)C2CC2)CC1
viability, T/C (compound 0.0316 µM): 102% and 103% and 85.9%
viability, T/C (compound 0.1 µM): 101% (2×) and 93.1%
viability, T/C (compound 0.316 µM): 94.2% and 92.7% and 111%
viability, T/C (compound 1 µM): 90.9% and 103% and 93.6%
viability, T/C (compound 3.16 µM): 89.6% and 92.4% and 71.7%
viability, T/C (compound 10 µM): 59.9% and 61.9% and 50.4%
IC50 (curve of compound): > 10 µM
